pIC50: −log10 of the molar value. Where two headings read alike, the source gives them in different places.
Key:
PDK2 [1] = target: T1, PDK2 (Homo sapiens, UniProt Q15119); assay: Assay for inhibition of PDK activity, PDK2; format: biochemical; set-up: made in house
Protocol: (§1) Recombinant human PDK2 was expressed and purified as a N terminal His6-tagged SUMO fusion protein with a tobacco-etch-virus protease (TEV) cleavage site in front of the N-terminal PDK2 sequence (26), and was used directly for the activity assay and binding affinity analyses. […] The purified protein was concentrated to 35-40 mg/ml and stored at −80° C. in small aliquots. Recombinant human PDK1, PDK3 and PDK4 were expressed and purified as described previously (26).
(§2) The remaining steps were described previously (26). IC50 values were obtained by the curve fitting of inhibition isotherms using Prism 6 (GraphPad software, Inc.).

[2] = target: T2, N-terminal domain of human Hsp90 (Homo sapiens, UniProt P07900); assay: Isothermal titration calorimetry (ITC), binding to Hsp90 N-terminal domain; details: read-out: Kd, nM for Hsp 90
T2 construct: the N-terminal domain (residue 1-236) of human Hsp90; His6 (N); SUMO (N); made in house; host or cells: E. coli BL21
Protocol: The sequence encoding the N-terminal domain was amplified and cloned into the pSUMO expression vector (Lifesensors, Malvern, Pa.). The fusion protein of His6-tagged SUMO-Hsp90 N-terminal domain was expressed in E. coli BL21 cells and purified with Ni-NTA resin (Qiagen) and on Superdex-200 column in 20 mM Tris.HCl, pH 7.5 and 500 mM NaCl.
(§3) The PDK2 or Hsp90 N-terminal domain protein was dialyzed against one liter of the dialysis buffer containing 50 mM Tris-Cl, pH 7.5, 50 mM KCl, 1 mM MgCl2, and 0.5 mM β-mercaptoethanol. […] All of the ITC data were initially analyzed by the NITPIC program (32) to construct the baseline, followed by curve-fitting in Origin 7 to obtain binding parameters.

DIO mice [3] = assay: Blood biochemistry of DIO mice (lactate, cholesterol, triglycerides); format: in vivo; details: 70 mg/kg/day
Protocol: Six- to eight-week old C57BL/6J male mice were obtained from the local campus breeding colony at UT Southwestern Medical Center (Dallas, Tex.) and randomized into two groups: vehicle- and PS10-treated. Prior to the treatment, mice were fed with a 60% high-fat diet, which contained 32% saturated and 68% unsaturated fat (catalog number: D12492, Research Diet Inc. New Brunswick, N.J.), for eight to ten weeks to produce DIO animals. PS-10 was dissolved in 100% DMSO and then diluted to make a 10% DMSO aqueous solution containing 17.5% (w/v) (2-hydroxypropyl)-β-cyclodextrin for delivery. Animals were dosed at mid-day by intraperitoneal (IP) injections at 70 mg/kg using 1-ml syringe and 30-gauge needle. The length of the treatment is indicted in each experiment. At 10 h after the last injection, animals were euthanized using carbon dioxide asphyxiation followed by cervical dislocation and dissection. Blood was harvested by cardiac puncture and stored on ice. Acidified citrate dextrose (ACD) was used as an anticoagulant. Immediately after blood collection, heart, liver, kidneys and both hind-leg quadriceps muscles were removed and snap frozen in liquid nitrogen. Average ischemia time before organ harvest was about 2 to 3 min. Blood was centrifuged in an Eppendorf 5415R refrigerated microcentrifuge at 9,300×g for 5 min to isolate plasma, which was subsequently stored at −80° C.
Glucose levels were determined with Sigma Diagnostics Glucose (Sigma Aldrich, St. Louis, Mo.). The levels of lactate, cholesterol, and triglyceride were measured by Vitros 250 blood chemistry analyzer (Johnson & Johnson Inc.) in the Metabolic Phenotyping Core in UT Southwestern Medical Center.

[4] = Half-life in vitro in hepatic S9 fractions; format: in vitro ADME; details: data not shown
DIO mice [5] = assay: Histochemistry of the liver (Oil Red O) of DIO mice; format: in vivo; details: 70 mg/kg/day
Protocol: Histological examination of the liver was performed in the institutional Immunohistochemistry Laboratory. Liver tissue was dissected, grossly trim then fixed by immersion for 48 hrs in 4% Formalin/PBS (4% […], 137 mM NaCl, 2.7 mM KCl and 10 mM phosphate buffer, pH 7.5) at 4° C. Liver samples were then transferred to 10% (w/v) sucrose in PBS and incubate at 4° C. for 24 hrs. Tissues were incubated in 18% sucrose in PBS at 4° C. for 24 hours. Finally, samples were transferred to a fresh 18% sucrose solution and embedded in OCT (Optimal cutting temperature compound), cryo-sectioned and stained with Oil Red O.

PDK2 [6] = target: T1, PDK2; assay: Isothermal titration calorimetry (ITC), binding to PDK2; set-up: made in house; details: ITC; read-out: Kd, nM for PDK2
Protocol: as §1, §3

PDK4 = PDK4 (Homo sapiens, UniProt Q16654); assay: Assay for inhibition of PDK activity, PDK4; format: biochemical; set-up: made in house
PDK4, sequence (Q16654 whole entry): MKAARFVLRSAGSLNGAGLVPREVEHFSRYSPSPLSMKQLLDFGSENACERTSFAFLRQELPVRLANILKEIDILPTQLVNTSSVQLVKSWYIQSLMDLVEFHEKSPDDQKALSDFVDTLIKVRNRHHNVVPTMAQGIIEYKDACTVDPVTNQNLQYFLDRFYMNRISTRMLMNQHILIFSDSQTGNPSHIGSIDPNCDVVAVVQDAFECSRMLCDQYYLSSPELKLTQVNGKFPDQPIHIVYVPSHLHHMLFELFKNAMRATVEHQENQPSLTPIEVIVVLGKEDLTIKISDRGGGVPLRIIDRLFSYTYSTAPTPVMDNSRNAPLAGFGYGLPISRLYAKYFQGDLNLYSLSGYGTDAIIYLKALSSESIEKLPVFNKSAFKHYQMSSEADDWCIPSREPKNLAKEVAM
Protocol: as §1, §2

O=S(=O)(c1ccc(O)cc1O)N1Cc2cc(O)cc(O)c2C1 [PS10, 2-((2,4-dihydroxyphenyl)sulfonyl)isoindoline-4,6-diol]
IC50 (PDK2 [1]; Table 1, inhibitor 31.6 nM to 1 mM, read-out: IC50, μM for PDK2): 0.8 µM | pIC50 (PDK2 [1]; absence of E2/E3BP core (−), read-out: IC50 for PDK2): 6.10 | Kd [2]: 47000 nM | plasma cholesterol vs vehicle-treated (DIO mice [3]): significantly lower | plasma lactate vs vehicle-treated (DIO mice [3]): significantly lower | plasma triglycerides vs vehicle-treated (DIO mice [3]): significantly lower | half-life [4]: > 4 h | fat in the liver, Oil Red O stain (DIO mice [5]): larger amounts of fat were present in the liver of the vehicle-treated DIO mice compared with PS10-treated | Kd (PDK2 [6]): 239 nM | IC50 (PDK4; Table 1, inhibitor 31.6 nM to 1 mM, read-out: IC50, μM for PDK4): 0.76 µM | pIC50 (PDK4; absence of E2/E3BP core (−), read-out: IC50 for PDK4): 6.11

Source: patent US10167258B2, “Inhibitors of mitochondrial pyruvate dehydrogenase kinase isoforms 1-4 and uses thereof” (The Board of Regents of the University of Texas System, priority 2013, dated 2019)
